Measured values published in US20130237530A1, “BENZODIAZEPINE DERIVATIVES, COMPOSITIONS AND METHODS FOR TREATING COGNITIVE IMPAIRMENT” (priority 2010, published 2013).
Entries after “also recorded” stand apart in the source; their conditions may differ. Like-named read-outs stand apart in the source and are kept apart here.

Legend:
aged-impaired (AI) rats [1] = assay: Morris water maze behavioral task, ICV infusion; assay type: in vivo, rat; settings: 100 μg ICV
Method: The effects of 6,6 dimethyl-3-(3-hydroxypropyl)thio-1-(thiazol-2-yl)-6,7-dihydro-2-benzothiophen-4(5H)-one on the in vivo spatial memory retention of aged-impaired (AI) rats were assessed in a Morris water maze behavioral task. A water maze is a pool surrounded with a novel set of patterns relative to the maze.
Cognitively impaired aged rats were implanted unilaterally with a cannula into the lateral ventricle. Stereotaxic coordinates were 1.0 mm posterior to bregma, 1.5 mm lateral to midline, and 3.5 mm ventral to the skull surface. After about a week of recovery, the rats were pre-trained in a water maze for 2 days (6 trials per day) to locate a submerged escape platform hidden underneath the surface of the pool, in which the escape platform location varied from day to day. No intracerebroventricular (ICV) infusion was given during pre-training
After pre-training, rats received ICV infusion of either 100 μg 6,6 dimethyl-3-(3-hydroxypropyl)thio-1-(thiazol-2-yl)-6,7-dihydro-2-benzothiophen-4(5H)-one (n=6) in 5 μl DMSO or vehicle DMSO (n=5) 40 min prior to water maze training and testing. Training consisted of 8 trials per day for 2 days where the hidden escape platform remained in the same location. Rats were given 60 seconds to locate the platform with a 60 seconds inter-trial interval. The rats were given a probe test (120 seconds) 24 hr after the end of training where the escape platform was removed. During the training, there were 4 blocks, where each block had 4 training trials.
During a test trial 24 hr after training, the escape platform was removed. The search/swim pattern of the rats was used to measure whether the rats remember where the escape platform was located during pre-trial training in order to test for the long-term memory of the rats. In this trial, “target annulus” is a designated area 1.5 times the size of the escape platform around the area where the platform was located during pre-trial training “Opposite annulus” is a control area of the same size as the size of the target annulus, which is located opposite to the target annulus in the pool. If the rats had good long term memory, they would tend to search in the area surrounding the location where the platform was during the pre-trial training (i.e., the “target” annulus; and not the “opposite” annulus). “Time in annulus” is the amount of time in seconds that the rat spent in the target or opposite annulus area. “Number (#) of crossings” in annulus is the number of times the rat swam across the target or opposite annulus area.

GABAA receptors (α5β3γ2) = biological target: T1, GABAA receptors (α5β3γ2) (Homo sapiens, UniProt P18507+P28472+P31644); assay: Potentiation of GABA EC50 current, two-electrode voltage clamp (TEVC) in Xenopus oocytes expressing GABAA α5β3γ2; assay type: cell-based; settings: read-out: GABA α5 EC50 % potentiation
T1 construct: myc-His (from vector pcDNA3.1 myc-His); expressed in transfected cells; host or cells: Xenopus laevis oocytes injected with cDNAs in pcDNA3.1 / pcDNA3.1 myc-His
Method: The agonist activity of the compounds of this invention was determined by measuring their effect on GABA-gated Cl— current from Xenopus oocytes expressing GABAA α5β3γ2 subtype receptor in a two-electrode voltage clamp (TEVC) setup.
In this study, the GABA-gated Cl^− current from oocytes expressing GABAAR α5β3γ2 subtype was measured in the TEVC setup in the presence of the test compounds. […] Upon conclusion of compound testing and successful washout, a 1.0 μM diazepam was tested and used for comparative activity on the two GABAAR subtypes.
Other concentrations of the test compound may also be tested following the same protocol.
Results are expressed as mean±SEM.

in vivo [2] = assay type: in vivo, Long Evans rats; settings: male, Long Evans, rat, iv, tracer 1 μg/kg, i.v., after vehicle administration
From the text: (§1) Food and water were available ad libitum.

GABAA α5 receptor [3] = assay: in vivo; assay type: in vivo, Long Evans rats; settings: i.v.; for effect on Ro 15-4513 binding/levels in cerebellum: 0.01-10 mg/kg
From the text: as §1

GABAA α5 receptor [4] = biological target: T2, GABAA α5 receptor (Rattus norvegicus, UniProt P18508+P19969); assay: in vivo; assay type: in vivo, Long Evans rats; settings: for effect on Ro 15-4513 binding in hippocampus: 0.01-10 mg/kg; for dose dependence of GABAA α5 receptor occupancy: administered intravenously
T2 construct: from tissue; host or cells: rat brain in vivo; hippocampus compared with cerebellum
From the text: as §1

aged-impaired (AI) rats [5] = assay: Radial Arm Maze (RAM) behavioral task, spatial memory retention; assay type: in vivo, rat
Method: The effects of methyl 3,5-diphenylpyridazine-4-carboxylate on the in vivo spatial memory retention of aged-impaired (AI) rats were assessed in a Radial Arm Maze (RAM) behavioral task using vehicle control and four different dosage levels of methyl 3,5-diphenylpyridazine-4-carboxylate ([…]). RAM behavioral tasks were performed on eight AI rats. All five treatment conditions (vehicle and four dosage levels) were tested on all eight rats.
The RAM apparatus used consisted of eight equidistantly-spaced arms. An elevated maze arm (7 cm width×75 cm length) projected from each facet of an octagonal center platform (30 cm diameter, 51.5 cm height). Clear side walls on the arms were 10 cm high and were angled at 65° to form a trough. A food well (4 cm diameter, 2 cm deep) was located at the distal end of each arm. Froot Loops™ (Kellogg Company) were used as rewards. Blocks constructed of Plexiglas™ (30 cm height×12 cm width) could be positioned to prevent entry to any arm. Numerous extra maze cues surrounding the apparatus were also provided.
The AI rats were initially subjected to a pre-training test (Chappell et al. Neuropharmacology 37: 481-487, 1998). The pre-training test consisted of a habituation phase (4 days), a training phase on the standard win-shift task (18 days) and another training phase (14 days) in which a brief delay was imposed between presentation of a subset of arms designated by the experimenter (e.g., 5 arms available and 3 arms blocked) and completion of the eight-arm win-shift task (i.e., with all eight arms available).
In the habituation phase, rats were familiarized to the maze for an 8-minute session on four consecutive days. In each of these sessions, food rewards were scattered on the RAM, initially on the center platform and arms and then progressively confined to the arms. After this habituation phase, a standard training protocol was used, in which a food pellet was located at the end of each arm. Rats received one trial each day for 18 days. Each daily trial terminated when all eight food pellets had been obtained or when either 16 choices were made or 15 minutes had elapsed. After completion of this training phase, a second training phase was carried out in which the memory demand was increased by imposing a brief delay during the trial. At the beginning of each trial, three arms of the eight-arm maze were blocked. Rats were allowed to obtain food on the five arms to which access was permitted during this initial “information phase” of the trial. Rats were then removed from the maze for 60 seconds, during which time the barriers on the maze were removed, thus allowing access to all eight arms. Rats were then placed back onto the center platform and allowed to obtain the remaining food rewards during this “retention test” phase of the trial. […]

in vivo [6] = assay type: in vivo, Long Evans rats; settings: for concentration at 35 min: male, young Long Evans rats
Method: as §1
For plasma exposures, blood samples were centrifuged at 14000 rpm for 16 minutes. After centrifuging, 50 ul of supernatant (plasma) from each sample was added to 200 μl of acetonitrile plus 0.1% formic acid. […] Samples were sonicated for 5 minutes in an ultrasonic water bath, followed by centrifugation for 30 minutes, at 16000 RPM. 100 ul of supernatant was removed from each sample vial and placed in a new glass auto sample vial, followed by the addition of 300 μl of sterile water (pH 6.5).
Additional studies were conducted in aged Long-Evans rats in order to determine the exposures at the behaviorally relevant doses in the cognition studies. Exposure in young Long-Evans rats was also determined to bridge with the receptor occupancy studies that were conducted in young Long-Evans rats. Exposures in young and aged Long-Evans rats were relatively similar (Table 3, FIG. 4).

α5-containing GABAA R = α5-containing GABAA R (Homo sapiens, UniProt P18507+P31644); settings: (EC20); van Niel et al. J. Med. Chem. 2005; cited from earlier work
[7] = probe test 24 hr after training
[8] = dose increase from 1 to 10 mg/kg, i.v.

T2 sequence (P19969 32-464 limits assumed): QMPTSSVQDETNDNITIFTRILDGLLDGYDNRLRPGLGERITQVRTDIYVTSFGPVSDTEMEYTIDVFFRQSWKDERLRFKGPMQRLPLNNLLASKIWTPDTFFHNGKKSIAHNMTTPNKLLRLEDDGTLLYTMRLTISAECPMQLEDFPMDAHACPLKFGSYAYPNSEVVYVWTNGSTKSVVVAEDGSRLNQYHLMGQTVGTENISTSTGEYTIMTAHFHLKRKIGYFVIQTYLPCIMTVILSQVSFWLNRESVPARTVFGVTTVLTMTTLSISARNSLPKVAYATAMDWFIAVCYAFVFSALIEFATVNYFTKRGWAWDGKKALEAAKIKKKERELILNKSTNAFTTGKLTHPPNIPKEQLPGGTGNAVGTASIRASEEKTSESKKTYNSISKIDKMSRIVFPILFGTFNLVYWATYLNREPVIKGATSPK
T2 sequence (P18508 39-466): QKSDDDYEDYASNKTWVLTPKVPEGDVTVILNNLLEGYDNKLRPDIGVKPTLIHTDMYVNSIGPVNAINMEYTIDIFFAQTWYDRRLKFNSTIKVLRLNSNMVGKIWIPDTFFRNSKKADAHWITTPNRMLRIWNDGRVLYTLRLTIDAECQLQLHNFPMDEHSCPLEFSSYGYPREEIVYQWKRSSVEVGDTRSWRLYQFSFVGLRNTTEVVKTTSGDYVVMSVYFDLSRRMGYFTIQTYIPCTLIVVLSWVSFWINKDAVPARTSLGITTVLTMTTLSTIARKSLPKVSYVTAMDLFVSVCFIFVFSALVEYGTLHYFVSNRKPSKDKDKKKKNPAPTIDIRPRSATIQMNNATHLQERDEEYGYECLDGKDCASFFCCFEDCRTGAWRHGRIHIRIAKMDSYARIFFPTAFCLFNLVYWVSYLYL
T1 sequence (P31644 32-462): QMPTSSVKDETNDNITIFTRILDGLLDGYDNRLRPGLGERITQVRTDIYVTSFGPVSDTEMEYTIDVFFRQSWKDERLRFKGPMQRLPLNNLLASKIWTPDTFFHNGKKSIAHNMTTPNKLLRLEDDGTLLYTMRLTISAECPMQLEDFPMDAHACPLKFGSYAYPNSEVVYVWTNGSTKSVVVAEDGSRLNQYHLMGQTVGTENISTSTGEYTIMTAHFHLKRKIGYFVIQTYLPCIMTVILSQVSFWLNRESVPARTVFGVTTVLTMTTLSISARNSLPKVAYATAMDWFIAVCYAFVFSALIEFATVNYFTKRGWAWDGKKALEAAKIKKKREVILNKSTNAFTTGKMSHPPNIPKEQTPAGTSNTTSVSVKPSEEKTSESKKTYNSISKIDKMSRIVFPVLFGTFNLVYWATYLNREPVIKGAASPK
T1 sequence (P28472 26-473): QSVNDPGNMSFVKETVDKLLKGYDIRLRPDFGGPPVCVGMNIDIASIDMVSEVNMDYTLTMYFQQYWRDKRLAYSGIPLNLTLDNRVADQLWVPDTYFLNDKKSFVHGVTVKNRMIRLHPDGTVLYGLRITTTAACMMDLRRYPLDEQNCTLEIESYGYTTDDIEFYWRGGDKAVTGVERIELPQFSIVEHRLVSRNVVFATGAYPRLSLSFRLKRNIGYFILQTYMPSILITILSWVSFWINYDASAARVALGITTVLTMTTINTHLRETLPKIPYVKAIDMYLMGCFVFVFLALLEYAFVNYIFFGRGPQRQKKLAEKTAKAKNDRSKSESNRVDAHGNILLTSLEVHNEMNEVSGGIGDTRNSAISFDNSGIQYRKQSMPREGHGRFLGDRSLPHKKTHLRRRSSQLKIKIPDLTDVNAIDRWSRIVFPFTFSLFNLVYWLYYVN
T1 sequence (P18507 40-475): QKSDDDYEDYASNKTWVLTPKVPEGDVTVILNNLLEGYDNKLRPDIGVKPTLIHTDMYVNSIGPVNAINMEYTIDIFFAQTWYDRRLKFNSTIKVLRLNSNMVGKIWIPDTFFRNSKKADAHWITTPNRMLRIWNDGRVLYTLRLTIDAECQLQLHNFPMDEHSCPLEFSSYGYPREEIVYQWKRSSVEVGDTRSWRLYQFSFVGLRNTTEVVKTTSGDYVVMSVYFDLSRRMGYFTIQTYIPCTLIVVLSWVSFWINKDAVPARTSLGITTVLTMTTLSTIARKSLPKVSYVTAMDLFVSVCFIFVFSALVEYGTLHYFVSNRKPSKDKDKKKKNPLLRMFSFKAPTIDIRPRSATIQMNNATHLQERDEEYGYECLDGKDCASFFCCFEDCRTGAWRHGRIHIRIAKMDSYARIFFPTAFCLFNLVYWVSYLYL
Chain of α5-containing GABAA R (P31644 32-462): as the sequence (P31644 32-462) above
Chain of α5-containing GABAA R (P28472 26-473 partner): as the sequence (P28472 26-473) above
Chain of α5-containing GABAA R (P18507 40-475): as the sequence (P18507 40-475) above

## CC1(C)CC(=O)c2c(SCCCO)sc(-c3nccs3)c2C1 [6,6 dimethyl-3-(3-hydroxypropyl)thio-1-(thiazol-2-yl)-6,7-dihydro-2-benzothiophen-4(5H)-one]
aged-impaired (AI) rats [1]
  learning of the water maze task: improved the learning of the water maze task
  long-term memory in the water maze task: improved the long-term memory
aged-impaired (AI) rats [1]; beginning of training (block 1)
  time to find the escape platform (escape latency): about 24 seconds
aged-impaired (AI) rats [1]; end of training (block 4)
  time to find the escape platform (escape latency): about 9.6 seconds
aged-impaired (AI) rats [1]; [7]
  number of crossings of target annulus vs opposite annulus: crossed the “target annulus” more often
  time in target annulus vs opposite annulus: spent significantly more time in the target annulus

## CCN(CC)C(=O)c1ncn2c1Cn1nnc(C)c1-c1cc(OC)ccc1-2 [Compound 2]
GABAA receptors (α5β3γ2)
  activation at 10 µM: 6.2%

## CCc1nnn2c1-c1cc(OC)ccc1-n1cnc(C(=O)N(CC)CC)c1C2 [Compound 7]
GABAA receptors (α5β3γ2)
  activation at 1 µM: 11.1%

## CCOC(=O)c1ncn2c1Cn1nnc(C)c1-c1cc(Cl)ccc1-2 [Compound 9]
GABAA receptors (α5β3γ2)
  activation at 1 µM: 8.3%

## CCOC(=O)c1ncn2c1CN(C)C(=O)c1cc(N=[N+]=[N-])ccc1-2 [Ro 15-4513]
In vivo [2]; cerebellum, read-out: levels of Ro 15-4513 in cerebellum
  concentration at 20 min: 0.36 ± 0.02 ng/g
In vivo [2]; hippocampus, read-out: levels of Ro 15-4513 in hippocampus
  concentration at 20 min: 1.93 ± 0.05 ng/g
GABAA α5 receptor [3]; tracer 1 μg/kg, after vehicle administration
  higher levels in hippocampus compared with cerebellum: > 5 fold

## CCOC(=O)c1ncn2c1Cn1c(C)nnc1-c1cc(OC)ccc1-2 [ethyl 3-methoxy-7-methyl-9H-benzo[f]imidazo[1,5-a][1,2,4]triazolo[4,3-d][1,4]diazepine-10-carboxylate]
GABAA α5 receptor [4]; i.v.
  effect on Ro 15-4513 binding in hippocampus: blocked the binding of Ro154513 in the hippocampus; also recorded: reduced Ro 15-4513 binding in hippocampus
GABAA α5 receptor [4]; 10 mg/kg, i.v.
  GABAA α5 receptor occupancy: > 90%
GABAA α5 receptor [4]
  dose dependence of GABAA α5 receptor occupancy: dose-dependent
GABAA α5 receptor [3]
  effect on Ro 15-4513 binding/levels in cerebellum: did not affect binding of Ro15413 in the cerebellum; also recorded: without affecting cerebellum levels of Ro 15-4513
aged-impaired (AI) rats [5]; 3 mg/kg, four-hour delay RAM, t(7)=4.13, p=0.004, or t(7)=3.08, p=0.018
  memory performance relative to vehicle control: significantly improved memory performance
aged-impaired (AI) rats [5]; 10 mg/kg, four-hour delay RAM, t(7)=2.82, p=0.026
  memory performance relative to vehicle control: significantly improved memory performance

## COC(=O)c1c(-c2ccccc2)cnnc1-c1ccccc1 [methyl 3,5-diphenylpyridazine-4-carboxylate]
In vivo [6]; Long Evans, rat, in vivo, read-out: brain/plasma ratios
  Kp: > 1
In vivo [6]; dose increase from 0.1 to 1 mg/kg, i.v.
  increase in hippocampal exposure: 12 fold
In vivo [6]; [8]
  increase in hippocampal exposure: ~5 fold
  increase in plasma exposure: 12 fold
In vivo [6]; Long Evans, rat, in vivo, 0.1 mg/kg, i.v., read-out: Hippocampus exposure (SEM)
  concentration at 35 min: 14.6 ng/g
In vivo [6]; Long Evans, rat, in vivo, 1 mg/kg, i.v., read-out: Hippocampus exposure (SEM)
  concentration at 35 min: 180 ng/g
In vivo [6]; Long Evans, rat, in vivo, 1 mg/kg, i.v., read-out: Plasma exposure (SEM)
  concentration at 35 min: 62.8 ng/mL
In vivo [6]; Long Evans, rat, in vivo, 10 mg/kg, i.v., read-out: Hippocampus exposure (SEM)
  concentration at 35 min: 947 ng/g
In vivo [6]; Long Evans, rat, in vivo, 10 mg/kg, i.v., read-out: Plasma exposure (SEM)
  concentration at 35 min: 764 ng/mL
GABAA α5 receptor [4]; i.v.
  effect on Ro 15-4513 binding in hippocampus: blocked the binding of Ro154513 in the hippocampus; also recorded: dose-dependently reduced Ro 15-4513 binding in hippocampus
GABAA α5 receptor [4]
  dose dependence of GABAA α5 receptor occupancy: dose-dependent increase
GABAA α5 receptor [3]
  effect on Ro 15-4513 binding/levels in cerebellum: did not affect binding of Ro15413 in the cerebellum; also recorded: without affecting cerebellum levels of Ro 15-4513
aged-impaired (AI) rats [5]; 3 mg/kg i.p., two-hour delay RAM, AI rats
  average no. of errors ± SEM in retention test: 1.31±0.40
aged-impaired (AI) rats [5]; 3 mg/kg i.p., two-hour delay RAM, t(7)=4.233, p=0.004
  memory performance relative to vehicle control: significantly improved memory performance
α5-containing GABAA R
  α5 in vitro efficacy: +27
